The source of these data is paper PMC5971447, “Selective inhibition of intestinal guanosine 3′,5′-cyclic monophosphate signaling by small-molecule protein kinase inhibitors” (The Journal of Biological Chemistry, 2018).

One assay concerns the target T1, cGKII (Homo sapiens, UniProt Q13237).
T1 construct: gene PRKG2; recombinant full-length, His-tagged, baculovirus insect cell expression; dimer
T1 sequence (Q13237 2-762): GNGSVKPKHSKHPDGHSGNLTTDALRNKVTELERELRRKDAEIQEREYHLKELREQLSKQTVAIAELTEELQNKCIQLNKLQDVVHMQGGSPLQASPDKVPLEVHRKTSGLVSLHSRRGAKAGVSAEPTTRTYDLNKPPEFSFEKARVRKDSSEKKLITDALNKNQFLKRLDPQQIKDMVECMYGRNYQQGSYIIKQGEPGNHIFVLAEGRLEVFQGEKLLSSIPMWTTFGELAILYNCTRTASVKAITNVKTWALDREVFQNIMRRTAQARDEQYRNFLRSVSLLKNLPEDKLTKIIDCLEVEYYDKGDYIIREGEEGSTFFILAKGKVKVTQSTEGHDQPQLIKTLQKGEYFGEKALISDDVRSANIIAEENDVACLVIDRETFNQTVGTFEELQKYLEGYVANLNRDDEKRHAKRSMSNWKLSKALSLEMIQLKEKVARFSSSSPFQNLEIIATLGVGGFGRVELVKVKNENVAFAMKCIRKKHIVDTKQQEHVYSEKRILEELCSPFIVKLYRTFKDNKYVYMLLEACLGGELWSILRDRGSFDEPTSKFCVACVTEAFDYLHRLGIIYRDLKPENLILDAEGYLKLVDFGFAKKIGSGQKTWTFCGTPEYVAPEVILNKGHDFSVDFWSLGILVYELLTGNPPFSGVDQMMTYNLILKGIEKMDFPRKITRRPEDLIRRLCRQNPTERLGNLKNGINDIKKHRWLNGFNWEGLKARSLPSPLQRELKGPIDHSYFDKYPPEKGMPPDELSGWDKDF
Kind of assay: […]-ATP peptide (2A3) phosphorylation. The class given is biochemical. Conditions: read-out: pIC50 in vitro (converted).

The next assay concerns the target T2, cGKI (Homo sapiens, UniProt Q13976).
T2 construct: gene PRKG1; recombinant full-length, commercial (Promega)
T2 sequence (Q13976 2-671): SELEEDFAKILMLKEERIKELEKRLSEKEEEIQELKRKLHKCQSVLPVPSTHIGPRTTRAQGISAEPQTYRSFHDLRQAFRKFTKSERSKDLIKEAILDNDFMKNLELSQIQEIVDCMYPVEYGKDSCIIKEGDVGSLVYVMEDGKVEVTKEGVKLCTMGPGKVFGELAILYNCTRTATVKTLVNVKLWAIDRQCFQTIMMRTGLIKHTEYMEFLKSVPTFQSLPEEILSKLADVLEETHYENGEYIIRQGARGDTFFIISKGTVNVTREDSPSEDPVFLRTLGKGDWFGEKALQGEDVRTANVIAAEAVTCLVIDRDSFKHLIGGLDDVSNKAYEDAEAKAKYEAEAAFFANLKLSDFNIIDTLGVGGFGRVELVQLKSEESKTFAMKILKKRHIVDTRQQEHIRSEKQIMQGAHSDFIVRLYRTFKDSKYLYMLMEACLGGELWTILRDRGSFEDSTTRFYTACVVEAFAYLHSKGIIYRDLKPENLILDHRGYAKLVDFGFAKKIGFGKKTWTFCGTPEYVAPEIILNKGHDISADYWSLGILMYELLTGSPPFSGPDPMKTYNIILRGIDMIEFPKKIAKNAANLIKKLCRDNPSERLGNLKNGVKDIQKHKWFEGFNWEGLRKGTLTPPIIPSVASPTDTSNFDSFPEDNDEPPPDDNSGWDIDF
Kind of assay: […]-ATP peptide (2A3) phosphorylation. The class given is biochemical. Particulars: 50 uM cGMP, pH 7.4, 5 mM MgCl2, 22 C.

In the case of `COc1ccc(CCNc2nccc(-c3ccc4c(c3)OCCO4)n2)cc1OC` [AP-C3], the IC50 at cGKII is 501 nM.

As for `C#CCNc1nccc(-c2ccc(-n3ccnc3)cc2)n1` [AP-C5], at cGKII, the IC50 was 63.1 nM. In addition, the pIC50 entry against cGKI is “potency of inhibition of cGKI and PKA was markedly lower than of cGKII”. In the case of `OCCNc1nccc(-c2ccc(-n3ccnc3)cc2)n1` [AP-C6], the IC50 at cGKII was 316 nM. Also, the pIC50 entry at cGKI is “potency of inhibition of cGKI and PKA was markedly lower than of cGKII”. For the molecule `c1ccc2c(CCNc3nccc(-c4ccc5c(c4)OCCO5)n3)c[nH]c2c1` [AP-C4], at cGKII, the IC50 is 6310 nM. The same measure, in the same setting: the figure for `COc1ccc(CCNc2nccc(-c3ccc4ccccc4c3)n2)cc1OC` [AP-C1] is 316 nM. `c1coc(CNc2nccc(-c3ccc(-n4ccnc4)cc3)n2)c1` [AP-C7]: the IC50 at cGKII was 10000 nM. Same read-out and setting: the figure for `c1csc(-c2ccnc(NCCc3c[nH]c4ccccc34)n2)c1` [AP-C2] is 6310 nM.
